{"source": "patent US20260216163A1", "about": "“CANCER COMBINATION THERAPY INCLUDING A FLT3-INHIBITOR” (RYVU THERAPEUTICS S.A., priority 2022, published 2026)", "key": {"MOLM-13 cells (FLT3 ITD)": {"system": "MOLM-13 cells (FLT3 ITD)", "experiment": "in vitro standard cytotoxicity (MTS, 72 h), MEN and Gilt single agent or combination, Combination Index", "format": "cell-based, human", "conditions": "MTS (Table 2); for IC50: Homo sapiens, read-out: IC50 dose level (single agent cytotoxicity)", "protocol": "(§1) In an in vitro standard cytotoxicity experiment, two AML cell lines (MV4-11 [FLT3 ITD] and MOLM-13 [FLT3 ITD]) were treated for 72 hours with MEN and Gilt (a Type I inhibitor) either as a single agent or in combination.\n(§2) Human acute myeloid leukemia cell lines MV4-11 and MOLM-13 were obtained from DSMZ, Braunschweig, Germany (ACC102 and ACC554). […] All cells were incubated at 37° C., 5% CO2, 80% relative humidity."}, "MV4-11 cells (FLT3 ITD)": {"system": "MV4-11 cells (FLT3 ITD)", "experiment": "in vitro standard cytotoxicity (MTS, 72 h), MEN and Gilt single agent or combination, Combination Index", "format": "cell-based, human", "conditions": "for IC50: Homo sapiens, read-out: IC50 dose level (single agent cytotoxicity)", "protocol": "as §1, §2"}, "[1]": {"system": "KG-1 cells (FLT wildtype)", "experiment": "in vitro standard cytotoxicity (MTS, 72 h), MEN and Gilt single agent or combination, Combination Index", "format": "cell-based, human", "conditions": "for IC50: Homo sapiens", "description": "Human acute myeloid leukemia cell line KG-1 was obtained from DSMZ, Braunschweig, Germany (ACC14)."}, "[2]": {"system": "MV4-11 (FLT3 ITD) cell line xenograft", "experiment": "in vivo AML xenograft study, tumor volume inhibition", "conditions": "MV4-11 xenograft, per os from day 19, MEN 25 mg/kg Q1 × 14 d, Gilteritinib 3 mg/kg Q1 × 22 d, combination each as above", "method": "For the AML xenograft model, 10×10^6 MV4-11 cells were re-suspended in 0.2 ml of BME type III (Trevigen) at 5.6 mg/ml+DPBS (1:1) and then injected subcutaneously into the right flank of 6-8 weeks old female SCID mice (Charles River, Calco, Italy).\nAfter injection, mice were maintained in micro isolator cages under continuously monitored environmental conditions. Drinking water and specific sterilized diet (VRF1, Charles River) were supplied ad libitum. […] Twice a week, tumor growth and body weight were evaluated and recorded.\n(§3) The outcome evaluation was carried out as follows: tumor volumes were measured by caliper, and tumor masses were calculated using the following formula: [length (mm)×width^2 (mm)×d]/2, assuming density, d=1 mg/mm^3 for tumor tissue (Teicher B. Totowa, 1997).\nThe treatment efficacy was assessed as TVI % in treated versus control mice, using the following formula: TVI %=(1−Volume Average of treated tumor mass/Volume Average of control tumor)*100.\nMice were sacrificed when tumors reached a volume of around 10% of total body weight or when mice's body weight decreased by more than 20% compared to control animals for 7 days or more. Animals were euthanized with carbon dioxide exposure according to the standard procedures (Annex IV of Directive 2010/63/EU; 2010).\nGraphPad Prism software (GraphPAD Software Inc., California) was used for statistical analysis. Statistical differences were considered to be significant at p-value<0.05 using the two-tailed Mann-Whitney rank test."}, "[3]": {"system": "MOLM-13 (FLT3 ITD) cell line xenograft", "experiment": "in vivo AML xenograft study, tumor volume inhibition", "conditions": "MOLM-13 xenograft, per os from day 15, MEN 25 mg/kg Q1 × 14 d, Gilteritinib 3 mg/kg Q1 × 14 d, combination each as above", "method": "For the AML xenograft model, 10×10^6 MOLM-13 cells were re-suspended in 0.2 ml of BME type III (Trevigen) at 5.6 mg/ml+DPBS (1:1) and then injected subcutaneously into the right flank of 6-8 weeks old female CD-1 mice (Charles River, Calco, Italy).\nAfter injection, mice were maintained in micro isolator cages under continuously monitored environmental conditions. Drinking water and specific sterilized diet (VRF1, Charles River) were supplied ad libitum. Environmental conditions, as well as the procedures for housing and handling the animals, complied with the UKCCCR guideline (Workman P et al., 2010) and the European Convention for the protection of vertebrate animals used for experimental and other scientific purposes (Directive 2010/63/EU; 2010). Twice a week, tumor growth and body weight were evaluated and recorded.\nas §3\nThe treatment efficacy was assessed as TVI % in treated versus control mice, using the following formula: TVI %=(1−Volume Average of treated tumor mass/Volume Average of control tumor)*100. […]"}, "MOLM-13 cells [4]": {"system": "MOLM-13 cells", "experiment": "in vitro standard cytotoxicity (MTS, 72 h), MEN and Quizartinib single agent or combination, Combination Index", "conditions": "for IC50: Homo sapiens, MOLM-13, 72 h, read-out: IC50 (single agent cytotoxicity)", "method": "(§4) The synergistic effect of the combination was measured according to the Combination Index calculation (Chou T C, 2006).\n(§5) MOLM-13 cells were grown in RPMI with 20% FBS and incubated at 37° C., 5% CO2, 80% relative humidity.\n(§6) 20907) were dissolved in DMSO, divided into aliquots and stored at −80° C. until use. Stock solutions were added at appropriate concentration in culture medium before the addition to cells.\n(§7) For cytotoxicity studies cells were seeded at appropriate density (50.000 cells/well) prior to addition of MEN and Quiz at day 0. […] After 72 hours, CellTiter 96 Aqueous One Solution Reagent (MTS) (Promega, Madison. WI, USA) was added to assess the cell viability. Fluorescence was measured 4 h later using Tecan Infinite M200 (Tecan Trading AG, Switzerland), recording absorbance at 490 nm. Quantitative measurement of synergism/antagonism was evaluated with Combination Index (CI) on the Fraction affected (Fa) using CompuSyn (ComboSyn, Inc. Paramus, NJ, USA) (Chou T C, 2006)."}, "MOLM-13 cells [5]": {"system": "MOLM-13 cells", "method": "as §4, §5, §6, §7"}, "[6]": {"conditions": "MOLM-13 cells, 72 h, MTS (Table 5)"}}, "note": "Like-named read-outs stand apart in the source and are kept apart here.", "data": [{"compound": "CCc1nc(C(N)=O)c(Nc2ccc(N3CCC(N4CCN(C)CC4)CC3)c(OC)c2)nc1NC1CCOCC1", "note": "[Gilteritinib]", "values": [{"measurement": "IC50", "setting": "MOLM-13 cells (FLT3 ITD)", "result": 11, "unit": "nM"}, {"measurement": "IC10 dose level (single agent cytotoxicity)", "setting": "MOLM-13 cells (FLT3 ITD)", "result": 1.4, "unit": "nM"}, {"measurement": "IC25 dose level (single agent cytotoxicity)", "setting": "MOLM-13 cells (FLT3 ITD)", "result": 4, "unit": "nM"}, {"measurement": "IC75 dose level (single agent cytotoxicity)", "setting": "MOLM-13 cells (FLT3 ITD)", "result": 32, "unit": "nM"}, {"measurement": "IC10 dose level (single agent cytotoxicity)", "setting": "MV4-11 cells (FLT3 ITD)", "result": 2.2, "unit": "nM"}, {"measurement": "IC25 dose level (single agent cytotoxicity)", "setting": "MV4-11 cells (FLT3 ITD)", "result": 4.2, "unit": "nM"}, {"measurement": "IC75 dose level (single agent cytotoxicity)", "setting": "MV4-11 cells (FLT3 ITD)", "result": 14, "unit": "nM"}, {"measurement": "IC50", "setting": "MV4-11 cells (FLT3 ITD)", "result": 7.9, "unit": "nM"}, {"measurement": "IC10 (single agent cytotoxicity)", "setting": "[1]", "result": 35.34, "unit": "nM"}, {"measurement": "IC25 (single agent cytotoxicity)", "setting": "[1]", "result": 150.2, "unit": "nM"}, {"measurement": "IC75 (single agent cytotoxicity)", "setting": "[1]", "result": 2712, "unit": "nM"}, {"measurement": "IC50", "setting": "[1]", "result": 638, "unit": "nM"}, {"measurement": "TVI % Day 33", "setting": "[2]", "result": 84.1, "unit": "%"}, {"measurement": "TVI % Day 40", "setting": "[2]", "result": 87.6, "unit": "%"}, {"measurement": "TVI % Day 29", "setting": "[3]", "result": 60.1, "unit": "%"}]}, {"compound": "CC(C)n1c(C2CCNCC2)nc2c([N+](=O)[O-])c(Br)c(Br)cc21", "note": "[MEN, 5,6-dibromo-4-nitro-2-(piperidin-4-yl)-1-(propan-2-yl)-1H-1,3-benzodiazole]", "values": [{"measurement": "IC50", "setting": "MOLM-13 cells (FLT3 ITD)", "result": 510, "unit": "nM"}, {"measurement": "IC10 dose level (single agent cytotoxicity)", "setting": "MOLM-13 cells (FLT3 ITD)", "result": 87, "unit": "nM"}, {"measurement": "IC25 dose level (single agent cytotoxicity)", "setting": "MOLM-13 cells (FLT3 ITD)", "result": 210, "unit": "nM"}, {"measurement": "IC75 dose level (single agent cytotoxicity)", "setting": "MOLM-13 cells (FLT3 ITD)", "result": 1230, "unit": "nM"}, {"measurement": "IC10 dose level (single agent cytotoxicity)", "setting": "MV4-11 cells (FLT3 ITD)", "result": 151, "unit": "nM"}, {"measurement": "IC25 dose level (single agent cytotoxicity)", "setting": "MV4-11 cells (FLT3 ITD)", "result": 293, "unit": "nM"}, {"measurement": "IC75 dose level (single agent cytotoxicity)", "setting": "MV4-11 cells (FLT3 ITD)", "result": 1103, "unit": "nM"}, {"measurement": "IC50", "setting": "MV4-11 cells (FLT3 ITD)", "result": 569, "unit": "nM"}, {"measurement": "IC10 (single agent cytotoxicity)", "setting": "[1]", "result": 57.48, "unit": "nM"}, {"measurement": "IC25 (single agent cytotoxicity)", "setting": "[1]", "result": 203, "unit": "nM"}, {"measurement": "IC75 (single agent cytotoxicity)", "setting": "[1]", "result": 2530, "unit": "nM"}, {"measurement": "IC50", "setting": "[1]", "result": 717, "unit": "nM"}, {"measurement": "TVI % Day 33", "setting": "[2]", "result": 57.2, "unit": "%"}, {"measurement": "TVI % Day 40", "setting": "[2]", "result": 53.1, "unit": "%"}, {"measurement": "TVI % Day 29", "setting": "[3]", "result": 38.8, "unit": "%"}, {"measurement": "IC50", "setting": "MOLM-13 cells [4]", "result": 510, "unit": "nM"}, {"measurement": "IC10 (single agent cytotoxicity)", "setting": "MOLM-13 cells [4]; [6]", "result": 87.29, "unit": "nM"}, {"measurement": "IC25 (single agent cytotoxicity)", "setting": "MOLM-13 cells [4]; [6]", "result": 322.2, "unit": "nM"}, {"measurement": "IC75 (single agent cytotoxicity)", "setting": "MOLM-13 cells [4]; [6]", "result": 1234, "unit": "nM"}]}, {"compound": "CC(C)(C)c1cc(NC(=O)Nc2ccc(-c3cn4c(n3)sc3cc(OCCN5CCOCC5)ccc34)cc2)no1", "note": "[QUIZ, Quizartinib]", "values": [{"measurement": "IC10 (single agent cytotoxicity)", "setting": "MOLM-13 cells [5]", "result": 0.374, "unit": "nM"}, {"measurement": "IC25 (single agent cytotoxicity)", "setting": "MOLM-13 cells [5]", "result": 0.595, "unit": "nM"}, {"measurement": "IC75 (single agent cytotoxicity)", "setting": "MOLM-13 cells [5]", "result": 1.504, "unit": "nM"}, {"measurement": "IC50", "setting": "MOLM-13 cells [4]", "result": 0.946, "unit": "nM"}]}]}
